Reference: patent publication US7058616B1, “Method and system for predicting resistance of a disease to a therapeutic agent using a neural network” (Virco Bvba, priority 2000, dated 2006)

Assays:
HIV-1 [1] = details: cited from earlier work; for Effect of 333D/E mutation: reverses the M184V effect
HIV-1 [2] = test: MT-4 cell viral cytopathic effect protection assay, phenotypic susceptibility of patient recombinant virus; type: cell-based
Method: Phenotypic susceptibility was determined using a MT-4 cell viral cytopathic effect protection assay. See, e.g., Kashiwase et al., Chemotherapy 45(1):48–55 (1999), expressly incorporated herein by reference; Larder et al., Antimicrob. Agents Chemother. 43(8):1961–1967 (1999).

SMILES | Effect of M184V mutation on AZT resistance (HIV-1 [1]) | Effect of 333D/E mutation (HIV-1 [1]) | actual phenotype resistance level (HIV-1 [2]; Table 3 testing sample 1) | actual phenotype resistance level (HIV-1 [2]; Table 3 testing sample 2) | actual phenotype resistance level (HIV-1 [2]; Table 3 testing sample 3) | actual phenotype resistance level (HIV-1 [2]; Table 3 testing sample 4) | actual phenotype resistance level (HIV-1 [2]; Table 3 testing sample 5) | actual phenotype resistance level (HIV-1 [2]; Table 3 testing sample 6) | actual phenotype resistance level (HIV-1 [2]; Table 3 testing sample 7) | actual phenotype resistance level (HIV-1 [2]; Table 3 testing sample 8) | actual phenotype resistance level (HIV-1 [2]; Table 3 testing sample 9) | actual phenotype resistance level (HIV-1 [2]; Table 3 testing sample 10) | actual phenotype (HIV-1 [2]; Table 13/14 sample 2: 10I,46I,48V,77I,82A,90M, 10E,58E,63T) | actual phenotype (HIV-1 [2]; Table 13/14 sample 6: 10I,48V,54V,82A, 13V) | actual phenotype (HIV-1 [2]; Table 13/14 sample 7: 71V,73S,90M, 20I,63P) | actual phenotype (HIV-1 [2]; Table 13/14 sample 14: 10I,46I,71T,77I,90M, 57K,63P,93L) | actual phenotype (HIV-1 [2]; Table 13/14 sample 17: 46I,77I,90M, 10F,20L,63P) | Effect of M184V mutation on 3TC susceptibility (HIV-1 [1])
Cc1cn([C@H]2C[C@H](N=[N+]=[N-])[C@@H](CO)O2)c(=O)[nH]c1=O [AZT, 3′-azido-3′-deoxythymidine] | reverses AZT resistance | dual AZT/3TC resistance |  |  |  |  |  |  |  |  |  |  |  |  |  |  |  | 
Nc1nc(NC2CC2)c2ncn([C@H]3C=C[C@@H](CO)C3)c2n1 [1592 U89] |  |  | S/S (A fold resistance of less than or equal to 4 is considered to be “sensitive,”) | S (A fold resistance of less than or equal to 4 is considered to be “sensitive,”) | S/S (A fold resistance of less than or equal to 4 is considered to be “sensitive,”) | S/S (A fold resistance of less than or equal to 4 is considered to be “sensitive,”) | S/S (A fold resistance of less than or equal to 4 is considered to be “sensitive,”) | I (greater than 4 and less than 10 is considered to be “intermediate,”) | S/S (A fold resistance of less than or equal to 4 is considered to be “sensitive,”) | I (greater than 4 and less than 10 is considered to be “intermediate,”) | S/S (A fold resistance of less than or equal to 4 is considered to be “sensitive,”) | S/S (A fold resistance of less than or equal to 4 is considered to be “sensitive,”) |  |  |  |  |  | 
CC(C)c1nc(CN(C)C(=O)N[C@H](C(=O)N[C@@H](Cc2ccccc2)C[C@H](O)[C@H](Cc2ccccc2)NC(=O)OCc2cncs2)C(C)C)cs1 [Ritonavir] |  |  |  |  |  |  |  |  |  |  |  |  | S (A fold resistance of less than or equal to 4 is considered to be ‘sensitive’) | R (if the value is greater than 10, it is considered to be ‘resistant’) | I (greater than 4 and less than 10 is considered to be ‘intermediate’) | S (A fold resistance of less than or equal to 4 is considered to be ‘sensitive’) | I (greater than 4 and less than 10 is considered to be ‘intermediate’) | 
Nc1ccn([C@@H]2CS[C@H](CO)O2)c(=O)n1 [3TC] |  | dual AZT/3TC resistance | S/S (A fold resistance of less than or equal to 4 is considered to be “sensitive,”) | R/R (if the value is greater than 10, it is considered to be “resistant.”) | R/R (if the value is greater than 10, it is considered to be “resistant.”) | S/S (A fold resistance of less than or equal to 4 is considered to be “sensitive,”) | R/R (if the value is greater than 10, it is considered to be “resistant.”) | R (if the value is greater than 10, it is considered to be “resistant.”) | R/R (if the value is greater than 10, it is considered to be “resistant.”) | R/R (if the value is greater than 10, it is considered to be “resistant.”) | R/R (if the value is greater than 10, it is considered to be “resistant.”) | S/S (A fold resistance of less than or equal to 4 is considered to be “sensitive,”) |  |  |  |  |  | confers resistance
